Laboratory results as given in patent US20210380722A1, “COMPOSITIONS AND METHODS FOR THE TREATMENT OF MAJOR DEPRESSIVE DISORDER” (Snake River Bioscience, Inc., priority 2019, published 2021).

What was measured:
untreated mice = assay: high dose of corticosterone in untreated mice, symptoms of major depression after 24 h; type: in vivo; details: 1 mg/kg, data not shown
Experimental: To exclude the possibility that investigators were measuring the effects of corticosterone that might have remained in the plasma of these mice, untreated mice were injected with a high dose of corticosterone (1 mg/kg) and the presence of biochemical and behavioral symptoms of major depression after 24 h were assessed.

wildtype mice [1] = assay: ceramide concentrations in exosomes from blood plasma of stressed mice (mass spectrometry, kinase assay); type: in vivo; details: corticosterone via drinking water 120 mg/L for 7 days; FIG. 1c
Experimental: Corticosterone (Sigma, St. Louis, Mo.) was administered to mice via the drinking water at 120 mg/L for 7 days. In the chronic unpredictable stress model (CUS), the mice were challenged with unpredictable environmental stress for 8 days, i.e., a reversal of the light/dark cycle, 3 h of 45° tilting of the cage twice each week, shaking at 125 rpm, food deprivation for 14 h, predator sounds (15 min) or wet cages (1 h) with two forms of stress per day in a randomized (unpredictable) order. Blood was collected from the heart into heparin-coated needles and tubes immediately after sacrifice by cervical dislocation. Blood plasma was centrifuged at 3500 rpm for 5 min at 4° C. in an Eppendorf centrifuge. […]
10 μL of blood plasma or of resuspended exosomes (corresponding to 50 μL plasma) was added to 190 μL H2O and extracted in 600 μL CHCl3:CH3OH:1N HCl (100:100:1, v/v/v). […] Ceramide amounts were determined by comparison with a standard curve; C16 to C24 ceramides were used as substrates.
Samples were subjected to lipid extraction with 1.5 mL methanol/chloroform (2:1, v:v). […] Dried residues were reconstituted in 200 μL of a 95:5 (v:v) mixture of high-performance liquid chromatography (HPLC) eluents B:A (see below), thoroughly vortexed for 10 min at 1,500 rpm, centrifuged at 2,200×g for 10 min at 4° C., and subjected to mass spectrometric sphingolipid quantification. […]

hippocampal neurons = details: cited from earlier work; for autophagy: Gulbins et al., Molecular Psychiatry (2018)
sphingomyelin synthases = details: direct inhibition of sphingomyelin synthases; cited from earlier work
wildtype mice [2] = assay: C16-ceramide loaded plasma or exosomes injected i.v. into wildtype mice; type: in vivo; details: plasma or exosomes of untreated mice loaded with 2 μM C16-ceramide, FIG. 4e
Experimental: Plasma or exosomes were loaded with C16 ceramide or deuterated C16 ceramide (Avanti Polar Lipids, USA) by incubation of purified exosomes with 2 μM C16 ceramide or 2 deuterated C16 ceramide in 100 μL PBS for 60 min at 37° C. Plasma samples were directly injected i.v. into healthy mice. Exosomes were centrifuged again at 100,000×g for 70 min, the supernatant was discarded, resuspended in PBS and injected i.v. into healthy mice.
For BrdU staining, mice were injected with BrdU 4 times, once every 2 h. Mice were sacrificed 24 h after the first injection and brains were prepared as above. […]
Behavioral testing was performed between 3:00 p.m. and 6:00 p.m. under diffuse indirect room light. […] The time was recorded during which the mice explored a new environment before they began eating. […] The time that the mouse spent in each of the separate compartments was recorded. […] In the coat state test, the appearance of the coat (groomed vs unkempt coat) was scored on the head, neck, back, and ventrum with either a zero for normal status or a 1 for unkempt status. […] After 24 h the mice were again placed in a water-filled cylinder for 6 min, and the time of mobility or immobility during the last 4 min of the second trial was recorded. […]

## C[C@]12C[C@H](O)[C@H]3[C@@H](CCC4=CC(=O)CC[C@@]43C)[C@@H]1CC[C@@H]2C(=O)CO [glucocorticosterone, Corticosterone]
Untreated mice
  induction of MDD (biochemical and behavioral symptoms of major depression): not sufficient to induce MDD
Wildtype mice [1]
  ceramide concentrations in exosomes in the blood plasma: marked increase in ceramide concentrations

## CNCCC(Oc1ccc(C(F)(F)F)cc1)c1ccccc1 (centres unmarked) [fluoxetine]
Hippocampal neurons
  autophagy: induce autophagy in hippocampal neurons

## S=C(S)OC1CC2CC1C1CCCC21 (centres unmarked) [D609]
Hippocampal neurons
  autophagy: activation of autophagy
Hippocampal neurons; direct inhibition of sphingomyelin synthases
  ceramide in the endoplasmic reticulum (ER): rapid accumulation of ceramide in the ER
Sphingomyelin synthases
  stress-induced MDD: rapid reversal of stress-induced MDD

## CCCCCCCCCCCCC/C=C/[C@@H](O)[C@H](CO)NC(=O)CCCCCCCCCCCCCCC [C16-ceramide, C16 ceramide]
Wildtype mice [2]
  induction of MDD (behavioral changes and neuronal proliferation): sufficient to induce MDD within 24 h

## CN(C)CCC=C1c2ccccc2CCc2ccccc21 [amitriptyline]
Hippocampal neurons
  autophagy: induce autophagy in hippocampal neurons
